Experimental data: paper PMC7211195 (Investigational New Drugs, 2019)
Where “and” joins values, the source holds several entries; their conditions need not be identical. Equal entries are not always repeated. Where two headings read alike, the source gives them in different places.

Experiment: Lapatinib pharmacokinetics and uptake in rat brain tissue (BT);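 for BT corr (BT homogenate corrected), single rat: brain concentration corrected for residual brain blood by the Fridén method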;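 for BT corr (BT homogenate), single rat: brain concentration corrected for residual brain blood by the Fridén method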
Assay type: in vivo, rats
Experimental: This study was conducted on rats, which are a promising model to predict P-gp-based drug-drug interactions at the human BBB [15]. The animals were allowed to acclimate for one week before the beginning of the experiments. Adult male Wistar-strain rats (weight 470–525 g) were used in the study. The animals were maintained under standard breeding conditions with a 12/12 h light-dark cycle (lights on at 6.00 a.m., lights off at 6.00 p.m.) at constant room temperature (23 ± 2 °C), relative humidity (55 ± 10%) and ad libitum access to food and water. The experimental protocol for this study was reviewed and approved by the Local Ethics Committee. To obtain consistent data, the study was based on the required minimum number of animals and observation time. […] Three rats were used at each time point (n = 3). In total, the research was conducted on 66 animals (n = 33 in the experimental group and n = 33 in the control group).
Elacridar was freshly dissolved in a vehicle at an initial concentration of 20 mg/mL. […] A volume of 80 μL of blood was collected from each rat by cutting off a piece of its tail. The blood samples were collected into heparinized test tubes at the following time points: […], and they were immediately centrifuged at 2880 g for 10 min at 4 °C. The anaesthetized rats (anaesthetized by intramuscular administration of 50 mg/kg ketamine and 10 mg/kg xylazine) were prepared for cisterna magna puncture. The hair over the puncture was removed and the skin was disinfected with alcohol. The animals were placed in a recumbent position with an elevated rear part of the body. The animals’ heads were slightly flexed and immobilized with the operator’s left hand. The space between the occiput rostrally and the atlas (C1) of the spinal column caudally was gently palpated with the left thumb. A 0.7 × 20 G needle with polyethylene tubing (Terumo Poland, Warsaw, Poland) was gently inserted at an approximate angle of 80–90° through the skin with the operator’s right hand into the midsagittal region. The moment that dura mater perforation was perceptible, a small amount of CSF was found in the needle tubing. To sample additional CSF, a 1 mL insulin syringe (Becton Dickinson, Warsaw, Poland) was used to collect 80–120 μL of CSF by very gentle aspiration. Only clear CSF was collected for further analysis. […] The animals’ brains were immediately dissected, washed in 0.9% NaCl and divided along the longitudinal axis. One of the brain hemispheres was again rinsed three times with 5 mL of 0.9% NaCl, weighed and homogenized with 0.9% NaCl (4 mL per 1 g of BT) in an Ultra-Turrax homogenizer (Witko, Łódź, Poland). The homogenate was then centrifuged at 4500 g for 10 min. All samples of the rat BP, CSF, and BT homogenate supernatant were stored at −80 °C until analysis.
The chromatographic analysis was conducted using a 1260 Infinity system (Agilent Technologies, Santa Clara, USA) equipped with a Kinetex® C18 column (50 × 4.6 mm, 2.6 μm, Phenomenex, Torrance, USA), which was maintained at 35 °C. The mobile phase consisted of 0.1% formic acid (v/v) in water with 5 mM ammonium formate (solvent A) and acetonitrile with 10% phase A (v/v, solvent B). The analyte and internal standard (IS, erlotinib) were eluted using a gradient run of 10 min as follows: 95% A at 0–2 min; 95%–5% A at 2–4 min; 5% A at 4–5 min; 5%–95% A at 5–6 min; 95% A at 6–10 min. The flow rate and injection volume were set at 0.7 mL/min and 10 μL, respectively. The needle was washed for 30 s in a mixture of acetonitrile, methanol, isopropanol, water, and formic acid (50:20:15:15:0.25, v/v/v/v/v).

[1] = male, Wistar, rat, brain tissue homogenate, corrected for residual blood, po, 100 mg/kg, lapatinib p.o. 100 mg/kg alone, read-out: BT corr (BT homogenate corrected), S
[2] = male, Wistar, rat, brain tissue homogenate, corrected for residual blood, po, 100 mg/kg, lapatinib p.o. 100 mg/kg alone, read-out: BT corr (BT homogenate corrected), single rat
[3] = male, Wistar, rat, brain tissue homogenate, oral, lapatinib 100 mg/kg + elacridar, read-out: BT corr (BT homogenate), S
[4] = male, Wistar, rat, brain tissue homogenate, oral, lapatinib 100 mg/kg + elacridar, read-out: BT corr (BT homogenate), single rat

BT corr (BT homogenate corrected), single rat (lapatinib p.o. 100 mg/kg alone, 1 h, 100 mg/kg): 62.82 ng/mL
BT corr (BT homogenate corrected), single rat (lapatinib p.o. 100 mg/kg alone, 1 h, listed as Lapatinib, 100 mg/kg): 62.82 ng/mL
BT corr (BT homogenate corrected), single rat (lapatinib p.o. 100 mg/kg alone, 4 h, 100 mg/kg): 135.24 ng/mL
BT corr (BT homogenate corrected), single rat (lapatinib p.o. 100 mg/kg alone, 4 h, listed as Lapatinib, 100 mg/kg): 135.24 ng/mL
BT corr (BT homogenate corrected), single rat (lapatinib p.o. 100 mg/kg alone, 6 h, 100 mg/kg): 116.18 ng/mL and 47.54 ng/mL
BT corr (BT homogenate corrected), single rat (lapatinib p.o. 100 mg/kg alone, 6 h, listed as Lapatinib, 100 mg/kg): 116.18 ng/mL and 47.54 ng/mL
BT corr (BT homogenate corrected), single rat (lapatinib p.o. 100 mg/kg alone, 8 h, 100 mg/kg): 44.94 ng/mL
BT corr (BT homogenate corrected), single rat (lapatinib p.o. 100 mg/kg alone, 8 h, listed as Lapatinib, 100 mg/kg): 44.94 ng/mL
BT corr (BT homogenate corrected), single rat (lapatinib p.o. 100 mg/kg alone, 12 h, 100 mg/kg): 10.91 ng/mL
BT corr (BT homogenate corrected), single rat (lapatinib p.o. 100 mg/kg alone, 12 h, listed as Lapatinib, 100 mg/kg): 10.91 ng/mL
Kp (male, Wistar, rat, brain tissue (homogenate supernatant), po, 100 mg/kg, read-out: Kp (tissue-to-plasma partition coefficient, AUC0-∞-tissue/AUC0-∞-plasma)): 0.036
concentration at 4 h (male, Wistar, rat, brain tissue homogenate, corrected for residual blood, oral, lapatinib 100 mg/kg + elacridar, 4 h, read-out: BT corr (BT homogenate), single rat): 78.2 ng/mL
concentration at 6 h (male, Wistar, rat, brain tissue homogenate, corrected for residual blood, oral, lapatinib 100 mg/kg + elacridar, 6 h, read-out: BT corr (BT homogenate), single rat): 87.3 ng/mL
concentration at 8 h (male, Wistar, rat, brain tissue homogenate, corrected for residual blood, oral, lapatinib 100 mg/kg + elacridar, 8 h, read-out: BT corr (BT homogenate), single rat): 91.5 ng/mL
concentration at 12 h (male, Wistar, rat, brain tissue homogenate, corrected for residual blood, oral, lapatinib 100 mg/kg + elacridar, 12 h, read-out: BT corr (BT homogenate), single rat): 63.6 ng/mL
concentration at 24 h (male, Wistar, rat, brain tissue homogenate, corrected for residual blood, oral, lapatinib 100 mg/kg + elacridar, 24 h, read-out: BT corr (BT homogenate), single rat): 52.7 ng/mL
concentration at 0.25 h [1]: 27.9 ng/mL
concentration at 0.25 h [2]: 22.5 ng/mL
concentration at 0.5 h [1]: 31.5 ng/mL
concentration at 0.5 h [2]: 24 ng/mL
concentration at 1 h (male, Wistar, rat, brain tissue homogenate, corrected for residual blood, po, 100 mg/kg, lapatinib p.o. 100 mg/kg alone, 1 h, read-out: BT corr (BT homogenate corrected), S): 55.5 ng/mL
concentration at 1 h (male, Wistar, rat, brain tissue homogenate, corrected for residual blood, po, 100 mg/kg, lapatinib p.o. 100 mg/kg alone, 1 h, read-out: BT corr (BT homogenate corrected), single rat): 48.1 ng/mL
concentration at 2 h [1]: 41.4 ng/mL
concentration at 2 h [2]: 30.1 ng/mL
concentration at 3 h [1]: 111 ng/mL
concentration at 3 h [2]: 139 ng/mL
concentration at 4 h (male, Wistar, rat, brain tissue homogenate, corrected for residual blood, po, 100 mg/kg, lapatinib p.o. 100 mg/kg alone, 4 h, read-out: BT corr (BT homogenate corrected), S): 115 ng/mL
concentration at 4 h (male, Wistar, rat, brain tissue homogenate, corrected for residual blood, po, 100 mg/kg, lapatinib p.o. 100 mg/kg alone, 4 h, read-out: BT corr (BT homogenate corrected), single rat): 94.2 ng/mL
concentration at 6 h (male, Wistar, rat, brain tissue homogenate, corrected for residual blood, po, 100 mg/kg, lapatinib p.o. 100 mg/kg alone, 6 h, read-out: BT corr (BT homogenate corrected), S): 81.9 ng/mL
concentration at 8 h (male, Wistar, rat, brain tissue homogenate, corrected for residual blood, po, 100 mg/kg, lapatinib p.o. 100 mg/kg alone, 8 h, read-out: BT corr (BT homogenate corrected), S): 66.2 ng/mL
concentration at 8 h (male, Wistar, rat, brain tissue homogenate, corrected for residual blood, po, 100 mg/kg, lapatinib p.o. 100 mg/kg alone, 8 h, read-out: BT corr (BT homogenate corrected), single rat): 87.5 ng/mL
concentration at 12 h (male, Wistar, rat, brain tissue homogenate, corrected for residual blood, po, 100 mg/kg, lapatinib p.o. 100 mg/kg alone, 12 h, read-out: BT corr (BT homogenate corrected), S): 44.5 ng/mL
concentration at 0.25 h [3]: 33.1 ng/mL
concentration at 0.25 h [4]: 30.7 ng/mL
concentration at 0.5 h [3]: 43.6 ng/mL
concentration at 0.5 h [4]: 45.2 ng/mL
concentration at 1 h (male, Wistar, rat, brain tissue homogenate, oral, lapatinib 100 mg/kg + elacridar, 1 h, read-out: BT corr (BT homogenate), S): 79.1 ng/mL
concentration at 1 h (male, Wistar, rat, brain tissue homogenate, oral, lapatinib 100 mg/kg + elacridar, 1 h, read-out: BT corr (BT homogenate), single rat): 74.9 ng/mL
Compound: CS(=O)(=O)CCNCc1ccc(-c2ccc3ncnc(Nc4ccc(OCc5cccc(F)c5)c(Cl)c4)c3c2)o1 [lapatinib, N-{3-Chloro-4-[(3-fluorobenzyl)oxy]phenyl}-6-[5-({[2-(methylsulfonyl)ethyl]amino}methyl)-2-furyl]-4-quinazolinamine]
